# Source: PMC5908784, “Extracellular loops 2 and 3 of the calcitonin receptor selectively modify agonist binding and efficacy” (Biochemical Pharmacology, 2018)
# Where a chain is given by its changes, count along the chain named. Where no end group is shown, it is not given here.
# Experiments:
# Experiment in all cases: Homologous whole cell competition binding
# Conditions in all cases: homologous competition of 125I-sCT(8-32), whole cells, mean ± S.E.M., SEM
# hCTR I279A = biological target: T1, hCTR I279A (Homo sapiens, UniProt P30988, I279A)
# T1 construct: expressed in transfected cells
# T1 sequence (P30988 25-474 I279A): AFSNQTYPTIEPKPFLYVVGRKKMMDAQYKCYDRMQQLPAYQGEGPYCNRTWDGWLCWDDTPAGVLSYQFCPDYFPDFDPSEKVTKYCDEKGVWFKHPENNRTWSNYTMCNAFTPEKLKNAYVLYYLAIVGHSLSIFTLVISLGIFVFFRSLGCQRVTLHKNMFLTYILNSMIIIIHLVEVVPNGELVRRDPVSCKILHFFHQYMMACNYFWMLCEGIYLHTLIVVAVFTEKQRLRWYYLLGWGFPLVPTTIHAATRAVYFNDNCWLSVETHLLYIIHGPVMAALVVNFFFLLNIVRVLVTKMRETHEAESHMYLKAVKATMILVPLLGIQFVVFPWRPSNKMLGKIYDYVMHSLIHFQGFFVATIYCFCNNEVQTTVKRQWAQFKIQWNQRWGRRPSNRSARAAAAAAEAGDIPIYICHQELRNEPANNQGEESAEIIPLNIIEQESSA
# Procedure: (§1) Homologous radioligand competition was performed on 2.5 × 10^4 cells/well seeded into 96-well trays and cultured overnight. Cells were incubated overnight at 4 °C with two concentrations of ^125I-sCT(8-32) (between 25 and 100 pM; specific activity, 2000 Ci/mmol^9) and serial dilutions of non-iodinated sCT(8-32). Non-bound ligand was removed and bound ligand activity was measured using a γ counter (Wallac Wizard 1470 Gamma Counter, Perkin Elmer, 80% counter efficiency). Values were normalized against non-specific binding (0%) defined by the presence of 1 μM of unlabelled sCT(8-32), and total ligand bound in absence of competing sCT(8-32) (100%).
# (§2) IC50 and Bmax values were estimated from competitive inhibition of ^125I-sCT(8-32) binding using a 3-parameter logistic equation (log(inhibitor versus response)) in Prism (v7; Graphpad). Data were corrected for radioligand occupancy using the Cheng-Prusoff equation in Prism; as such data are reported as pKi. Emax and EC50 were estimated from concentration-response curves using with a 3-parameter logistic equation in Prism (v7). These values are a composite of functional affinity, efficacy and stimulus response coupling. The Black and Leff operational model of agonism was applied to separate effects on pathway-specific efficacy (τ) from those that modify ligand functional affinity (pKA). Derived τ values were normalized to experimentally determined levels of cell surface expression to provide a measure of efficacy (τc) that is independent of affinity and altered cell surface receptor expression. pKi, pKA and log τc values for mutant receptors were statistically compared to those of the WT receptor using a one-way analysis of variance (ANOVA) and Dunnett’s post-test. Significance was accepted at P < 0.05.
# hCTR N288A = biological target: T2, hCTR N288A (Homo sapiens, UniProt P30988, N288A)
# T2 construct: expressed in transfected cells
# T2 sequence (P30988 25-474 N288A): T1 sequence (P30988 25-474 I279A) with A255I, N264A
# Procedure: as §1, §2
# hCTR Y372A = biological target: T3, hCTR Y372A (Homo sapiens, UniProt P30988, Y372A)
# T3 construct: c-Myc (N); expressed in transfected cells
# T3 sequence (P30988 25-474 Y372A): T1 sequence (P30988 25-474 I279A) with A255I, Y348A
# Procedure: as §1, §2
# hCTR L368A = biological target: T4, hCTR L368A (Homo sapiens, UniProt P30988, L368A)
# T4 construct: c-Myc (N); expressed in transfected cells
# T4 sequence (P30988 25-474 L368A): T1 sequence (P30988 25-474 I279A) with A255I, L344A
# Procedure: as §1, §2
substance,measurement,setting,value
VLGKLSQELHKLQTYPRTNTGSGTP-NH2 [sCT(8-32)],Ki,hCTR I279A,0.191 nM
same,Ki,hCTR N288A,0.234 nM
same,Ki,hCTR Y372A,0.141 nM
same,Ki,hCTR L368A,0.209 nM
